Results taken from patent US20230173089A1, “Q-ER PEPTIDE” (Biotempt B.V., priority 2019, published 2023).

Assays:
mTOR = settings: cited from earlier work; for activity as activators of mTOR or inhibitors of autophagy compared with other amino acids: alone or in combination
[1] = tested on: Wistar rats with hemorrhagic shock; experiment: hemorrhagic shock and resuscitation in rats (Example 15, SIRS); assay type: in vivo, rat; settings: single injection 30 minutes after induction of hemorrhagic shock
Method: Severe hemorrhagic shock followed by resuscitation induces a massive inflammatory response, which may culminate into systemic inflammatory response syndrome, multiple organ dysfunction syndrome and finally death. Treatments that effectively prevent this inflammation are limited so far. […] Considering this powerful anti-inflammatory effect, it was investigated whether administration of 0.5 ml i.p. of synthetic heptapeptide SEQ ID NO:5 (AQGVAPG), SEQ ID NO:6 (LQGVAPG), SEQ ID NO:7 (AQGVLPG), SEQ ID NO:8 (LQGVLPG), dissolved in 0.9% NaCl at a concentration of 25 mg/ml, or vehicle (0.9% NaCl), respectively, during the SIRS-phase of hemorrhagic shock, is able to attenuate the inflammatory response associated with this condition.
Hemorrhagic shock is induced in groups of 6 rats for 60 minutes by blood withdrawal until a mean arterial pressure of 40 mmHg is reached. Thirty minutes after induction of hemorrhagic shock, rats received a single injection with one of synthetic heptapeptide SEQ ID NO:5 (AQGVAPG), SEQ ID NO:6 (LQGVAPG), SEQ ID NO:7 (AQGVLPG), SEQ ID NO:8 (LQGVLPG), or 0.9% NaCl solution, as control. Treatment with synthetic heptapeptide SEQ ID NO:5 (AQGVAPG), SEQ ID NO:6 (LQGVAPG), SEQ ID NO:7 (AQGVLPG), SEQ ID NO:8 (LQGVLPG) prevents systemic release of TNF-α and IL-6 and is associated with reduced TNF-α, IL-6 and E-selectin mRNA transcript levels in the liver, with reduced neutrophil infiltration into the liver and is associated with reduced liver damage.
Animals. Adult male specific pathogen-free Wistar rats weighing 350-400 g are used. Rats are housed under barrier conditions at 25° C. with a twelve-hour light/dark cycle, and are allowed food and water ad libitum. The experimental protocol adheres to the rules laid down in national law that serves the implementation of “Guidelines on the protection of experimental animals” by the Council of Europe (1986), Directive 86/609/EC. hCG-related synthetic oligopeptides. Rats are food deprived overnight before the start of the experiment, but are allowed water ad libitum. Rats are anesthetized using a mixture of N2 O/O2 /isoflurane (Pharmachemie B.V., Haarlem, The Netherlands). Body temperature is continuously maintained at 37.5° C. by placing the rats on a thermo controlled “half-pipe” (UNO, Rotterdam, The Netherlands). Endotracheal intubation is performed, and rats are ventilated at 60 breaths per minute with a mixture of N2 O/O2 /isoflurane. Polyethylene tubes (PE-50, Becton Dickinson; St. Michielsgestel, The Netherlands) are flushed with heparin and placed via the right carotid artery in the aorta and in the right internal jugular vein. A 5 cm midline laparotomy is performed and a supra pubic catheter is inserted to monitor urine production. Hemorrhagic shock is induced by blood withdrawal, reducing the circulating blood volume until a mean arterial pressure (MAP) of 40 mmHg is reached. This level of hypotension is maintained for 60 minutes. Thirty minutes after the induction of hemorrhagic shock, rats received a single intravenous (IV) bolus injection of heptapeptide solution or vehicle. Sixty minutes after induction of hemorrhagic shock, rats are resuscitated by four times their shed blood volume over a period of 30 minutes to normalize the MAP, and monitored for another 120 minutes after which they are sacrificed. The rats receive no heparin before or during the experiment. Sham animals are subjected to the same surgical procedure as the hemorrhagic shock animals, but without blood withdrawal and administration of heptapeptide.

[2] = tested on: non-obese diabetic (NOD) mouse; experiment: type 1 diabetes development in NOD mice; assay type: in vivo; settings: 250 µg i.p. three times per week, female NOD mice from 14 weeks, max five weeks
Text: The non-obese diabetic (NOD) mouse spontaneously develops type 1 diabetes (T1D) and has served as a model for understanding the genetic and immunological basis, and treatment, of T1D. NOD mice are used in these studies. Most diabetic NOD mice suffer from insulin deficiency diabetes, with the underlying cause of the pancreatic beta-cell loss or destruction most likely a result of an inflammatory process in the micro-vasculature surrounding endocrine beta-cell tissues and genetically accelerated autoimmunity is suspected. Diabetes is assessed by measurement of the venous blood glucose level using an Abbott Medisense Precision glucometer. Mice are considered diabetic after two consecutive glucose measurements ≥11 mmol/l (200 mg/dl). Onset of diabetes is dated from the first consecutive reading of ≥11 mmol/l. In vivo treatment: groups of 14 weeks-old female NOD mice (n=12 per group) are treated with synthetic peptide SEQ ID NO:5 (AQGVAPG), SEQ ID NO:6 (LQGVAPG), SEQ ID NO:7 (AQGVLPG), SEQ ID NO:8 (LQGVLPG) or vehicle (PBS), respectively. Treatment is done by injecting 250 µg peptide diluted in PBS three times per week intraperitoneally (i.p.). Control mice are treated with PBS only. The treatment is discontinued when all PBS treated NOD mice in the experiment have developed diabetes. This is generally at the age of 19 weeks. The peptide and PBS treatments are done for a maximum of five weeks. In instances of hyperglycaemia of ≥20 mmol/l the mice are killed to avoid prolonged discomfort. The remainder mice are kept alive up to the age of 35 weeks without any further treatment.

Human monocytes = experiment: monocyte chemotaxis in 48-well microchemotaxis chamber; assay type: cell-based; settings: for chemotactic activity at a stated concentration: 0.1 mmol/L; for induction of monocyte chemotaxis: 10-9 to 10-5 mol/L; for peptide derived chemotactic activity under competition with VGVAPG: competition with SEQ ID NO:19; for monocyte chemotaxis in the presence of glucose, fructose, or mannose: control sugars; for monocyte chemotaxis in the presence of lactose: lactose dissociates the 67-kD ERC; for chemotactic response to f-MLF after preincubation of monocytic cells with peptide: preincubation 30 minutes; for chemotactic potency compared with f-MLF: same concentration of f-MLF
Method: Human monocytes are isolated from freshly drawn blood of healthy volunteers using serial […] gradient centrifugation, as described elsewhere. Cells are cultured for 16 hours in RPMI-1640 media supplemented with 0.5% human serum to become quiescent after isolation. Purity of the cells is >95% as determined by flow cytometry analysis. Monocyte chemotaxis is assayed in a 48-well microchemotaxis chamber (Neuroprobe, Gaithersburg, MD) in serum-free media. Wells in the upper and lower chamber are separated by a polyvinylpyrrolidone-free polycarbonate membrane (pore size 5 µm; Costar). Freshly isolated monocytes at a density of 5 × 10^5/mL are incubated for 2.5 hours with recombinant C-peptide (Sigma), before migrated cells on the bottom face of the filter are stained and counted under the light microscope. Maximal chemotactic activity is measured with […] N -formyl-methionyl-leucyl-phenylalanine (f-MLF; Sigma Chemical Co), and checkerboard analysis is used to distinguish chemotaxis from chemokinesis.
Chemotaxis is tested with SEQ ID NO:12 ([…]), SEQ ID NO:11 ([…]), SEQ ID NO:24 ([…]) or SEQ ID NO:25 ([…]). Exposure of cells to lactose is used to specifically dissociate the 67-kD ERC. Controls for lactose included glucose, fructose, and mannose, none of which affect the 67-kD ERC. In each case, monocytes cells are exposed to the relevant concentrations of SEQ ID NO:12 ([…]), SEQ ID NO:11 ([…]), SEQ ID NO:24 ([…]) or SEQ ID NO:25 ([…]) (10-9 to 10-5 mol/L), for 30 minutes before the chemotaxis assays are started. […] Monocytes in the upper wells of the assay chamber are exposed to varying concentrations of SEQ ID NO:12 ([…]), SEQ ID NO:11 ([…]), SEQ ID NO:24 ([…]) or SEQ ID NO:25 ([…]) for 30 minutes before stimulation by SEQ ID NO:19 (VGVAPG) (0.1 nmol/L - 10 nmol/L) in the lower wells. […] SEQ ID NO:12 ([…]), SEQ ID NO:11 ([…]), SEQ ID NO:24 ([…]), or SEQ ID NO:25 ([…]) derived chemotactic activity is eliminated by competition with Val-Gly-Val-[…]-Pro-Gly (SEQ ID NO:19 (VGVAPG)), a repetitive peptide found in human elastin that binds to cellular elastin receptors. Monocyte chemotaxis in response to both SEQ ID NO:19 (VGVAPG) or SEQ ID NO:12 ([…]), SEQ ID NO:11 ([…]), SEQ ID NO:24 ([…]), or SEQ ID NO:25 ([…]) is abolished in the presence of lactose, a galactosugar that specifically dissociates the 67-kD ERC, but it is unaffected by glucose, fructose, or mannose.

CC(C)[C@H](N)C(=O)O [L-Valine]
activity as activators of mTOR or inhibitors of autophagy compared with other amino acids (mTOR): more potent

AQGVAPG (Immunomodulatory peptide) [SEQ ID NO:5]
TNF-α, IL-6 and E-selectin mRNA transcript levels in the liver [1]: reduced
liver damage [1]: reduced
neutrophil infiltration into the liver [1]: reduced
systemic release of TNF-α and IL-6 [1]: prevents
beta-cell failure with diabetes development (occurrence of diabetes after the age of 17 weeks) [2]: significantly reduces

CC(C)C[C@H](N)C(=O)O [L-Leucine]
activity as activators of mTOR or inhibitors of autophagy compared with other amino acids (mTOR): more potent
mTOR associated autophagic inhibitory effects on human cells (mTOR): most prominent

NCCCC[C@H](N)C(=O)O [L-Lysine]
activity as activators of mTOR or inhibitors of autophagy compared with other amino acids (mTOR): no or opposite effects

O=C(O)[C@@H]1CCCN1 [L-Proline]
activity as activators of mTOR or inhibitors of autophagy compared with other amino acids (mTOR): more potent
mTOR associated autophagic inhibitory effects on human cells (mTOR): most prominent

N[C@@H](Cc1ccccc1)C(=O)O [L-Phenylalanine]
activity as activators of mTOR or inhibitors of autophagy compared with other amino acids (mTOR): no or opposite effects

CSCC[C@H](N)C(=O)O [L-Methionine]
activity as activators of mTOR or inhibitors of autophagy compared with other amino acids (mTOR): no or opposite effects

N[C@@H](CO)C(=O)O [L-Serine]
activity as activators of mTOR or inhibitors of autophagy compared with other amino acids (mTOR): no or opposite effects

N[C@@H](CCC(=O)O)C(=O)O [L-Glutamic Acid]
activity as activators of mTOR or inhibitors of autophagy compared with other amino acids (mTOR): no or opposite effects

N[C@@H](Cc1ccc(O)cc1)C(=O)O [L-Tyrosine]
activity as activators of mTOR or inhibitors of autophagy compared with other amino acids (mTOR): no or opposite effects

N=C(N)NCCC[C@H](N)C(=O)O [L-Arginine]
activity as activators of mTOR or inhibitors of autophagy compared with other amino acids (mTOR): more potent

NCC(=O)O [L-Glycine]
activity as activators of mTOR or inhibitors of autophagy compared with other amino acids (mTOR): more potent
amino-acid-stimulated mTOR complex 1 activation (mTOR): improves

CC[C@H](C)[C@H](N)C(=O)O [L-Isoleucine]
activity as activators of mTOR or inhibitors of autophagy compared with other amino acids (mTOR): more potent

C[C@H](N)C(=O)O [L-Alanine]
activity as activators of mTOR or inhibitors of autophagy compared with other amino acids (mTOR): more potent
mTOR associated autophagic inhibitory effects on human cells (mTOR): most prominent

LQGVQPGQ (Immunomodulatory peptide) [SEQ ID NO:24]
chemotactic activity at a stated concentration (Human monocytes): good activity
induction of monocyte chemotaxis (Human monocytes): induce chemotaxis in a concentration-dependent manner
peptide derived chemotactic activity under competition with VGVAPG (Human monocytes): eliminated
monocyte chemotaxis in the presence of glucose, fructose, or mannose (Human monocytes): unaffected
monocyte chemotaxis in the presence of lactose (Human monocytes): abolished
chemotactic response to f-MLF after preincubation of monocytic cells with peptide (Human monocytes): does not alter
chemotactic potency compared with f-MLF (Human monocytes): considerably more potent

C[C@@H](O)[C@H](N)C(=O)O [L-Threonine]
activity as activators of mTOR or inhibitors of autophagy compared with other amino acids (mTOR): no or opposite effects

AQGVLPGQ (Immunomodulatory peptide) [SEQ ID NO:11]
chemotactic activity at a stated concentration (Human monocytes): good activity
induction of monocyte chemotaxis (Human monocytes): induce chemotaxis in a concentration-dependent manner
peptide derived chemotactic activity under competition with VGVAPG (Human monocytes): eliminated
monocyte chemotaxis in the presence of glucose, fructose, or mannose (Human monocytes): unaffected
monocyte chemotaxis in the presence of lactose (Human monocytes): abolished
chemotactic response to f-MLF after preincubation of monocytic cells with peptide (Human monocytes): does not alter
chemotactic potency compared with f-MLF (Human monocytes): considerably more potent

LQGVLPGQ (Immunomodulatory peptide) [SEQ ID NO:12]
chemotactic activity at a stated concentration (Human monocytes): good activity
induction of monocyte chemotaxis (Human monocytes): induce chemotaxis in a concentration-dependent manner
peptide derived chemotactic activity under competition with VGVAPG (Human monocytes): eliminated
monocyte chemotaxis in the presence of glucose, fructose, or mannose (Human monocytes): unaffected
monocyte chemotaxis in the presence of lactose (Human monocytes): abolished
chemotactic response to f-MLF after preincubation of monocytic cells with peptide (Human monocytes): does not alter
chemotactic potency compared with f-MLF (Human monocytes): considerably more potent

AQGVQPGQ (Immunomodulatory peptide) [SEQ ID NO:25]
chemotactic activity at a stated concentration (Human monocytes): good activity
induction of monocyte chemotaxis (Human monocytes): induce chemotaxis in a concentration-dependent manner
peptide derived chemotactic activity under competition with VGVAPG (Human monocytes): eliminated
monocyte chemotaxis in the presence of glucose, fructose, or mannose (Human monocytes): unaffected
monocyte chemotaxis in the presence of lactose (Human monocytes): abolished
chemotactic response to f-MLF after preincubation of monocytic cells with peptide (Human monocytes): does not alter
chemotactic potency compared with f-MLF (Human monocytes): considerably more potent

VGVAPG (Immunomodulatory peptide) [SEQ ID NO:19, reference compound]
monocyte migration (Human monocytes; 0.1 nmol/L - 10 nmol/L in the lower wells): concentration-dependent increase
monocyte chemotaxis in the presence of glucose, fructose, or mannose (Human monocytes): unaffected
monocyte chemotaxis in the presence of lactose (Human monocytes): abolished
